Measurements taken from DBAASP.
Values after ≈ are worked out from the molar mass of the structure shown. Values joined by “and” are separate entries in the source; they are usually repeats but may differ in a detail not shown here. Equal values may be shown once. Values belong to the compound of their own block, whether it stands above or below them.

Experiments:
Assay in all cases: ≥ marks a high value that may be exact or a test limit, other limits are often not marked, values filed in µg/mL are converted to µM
[1] = test system: Staphylococcus epidermidis C621
[2] = test system: Escherichia coli UB1005
[3] = test system: Pseudomonas aeruginosa H188
[4] = test system: Pseudomonas aeruginosa H187
[5] = test system: Staphylococcus aureus SAP 0017
[6] = test system: Escherichia coli DC2
[7] = test system: Corynebacterium xerosis C875
[8] = test system: Bacillus subtilis C971
[9] = test system: Salmonella typhimurium C587
[10] = test system: Salmonella typhimurium C610
[11] = test system: Staphylococcus aureus ATCC 25923
[12] = test system: Enterococcus faecalis C625
[13] = test system: Pseudomonas aeruginosa ATCC 14502
[14] = test system: Escherichia coli ATCC 11775
[15] = test system: Staphylococcus aureus ATCC 6538
[16] = test system: Pseudomonas aeruginosa
[17] = test system: Escherichia coli SBS 363
[18] = test system: Staphylococcus aureus ATCC 43300
[19] = test system: Escherichia coli ATCC 25922
[20] = test system: Staphylococcus aureus ATCC 12600
[21] = test system: Micrococcus luteus A270
[22] = test system: Micrococcus luteus ATCC 49732
[23] = test system: Staphylococcus aureus CCARM 3089
[24] = test system: Escherichia coli KCTC 1682
[25] = test system: Salmonella enterica subsp. enterica serovar Typhimurium ATCC 14028s
[26] = test system: Salmonella typhimurium KCTC 1926
[27] = test system: Pseudomonas aeruginosa KCTC 1637
[28] = test system: Staphylococcus aureus CCARM 3126
[29] = test system: Salmonella typhimurium CCARM 8013
[30] = test system: Staphylococcus aureus KCTC 1621
[31] = test system: Salmonella typhimurium CCARM 8009
[32] = test system: Staphylococcus aureus C623
[33] = test system: Staphylococcus aureus CCARM 3090
[34] = test system: Candida albicans C627
[35] = test system: Aeromonas salmonicida 97-4
[36] = test system: Staphylococcus aureus CCARM 3108
[37] = test system: Salmonella typhimurium CCARM 8007
[38] = test system: Escherichia coli CGSC 4908
[39] = test system: Pseudomonas aeruginosa Z61
[40] = test system: Salmonella enterica serovar typhimurium MS7953s
[41] = test system: Staphylococcus aureus CCARM 3114
[42] = test system: Escherichia coli CCARM 1229
[43] = test system: Candida albicans CCARM 14001
[44] = test system: Staphylococcus aureus
[45] = test system: Escherichia coli CCARM 1238
[46] = test system: Pseudomonas aeruginosa K799
[47] = test system: Aeromonas salmonicida 99-1
[48] = test system: Candida albicans KCTC 7270
[49] = test system: Trichosporon beigelii KCTC 7707
[50] = test system: Helicobacter pylori NCTC 11637
[51] = test system: Bacillus subtilis
[52] = test system: Shigella dysenteriae
[53] = test system: Staphylococcus aureus ATCC 2592
[54] = test system: Candida albicans ATCC 2002

- MIC [1]: 5.43 µM (≈ 16.2 µg/mL)
- MIC [2]: 5.43 µM (≈ 16.2 µg/mL)
- MIC [3]: 10.9 µM (≈ 32.4 µg/mL)
- MIC [4]: 6.86 µM (≈ 20.5 µg/mL)
- MIC [5]: 10.9 µM (≈ 32.4 µg/mL)
- MIC [6]: 1.7 µM (≈ 5.07 µg/mL)
- MIC [7]: 0.848 µM (≈ 2.53 µg/mL)
- MIC [8]: 1.7 µM (≈ 5.07 µg/mL)
- MIC [9]: 10.9 µM (≈ 32.4 µg/mL)
- MIC [10]: 4.31 µM (≈ 12.9 µg/mL)
- MIC [11]: 10.9 µM (≈ 32.4 µg/mL)
- MIC [12]: 17.2 µM (≈ 51.5 µg/mL)
SMILES: CC[C@H](C)[C@H](NC(=O)[C@H](C)NC(=O)[C@H](CCCCN)NC(=O)[C@H](CC(C)C)NC(=O)[C@H](C)NC(=O)[C@@H](NC(=O)[C@H](Cc1cnc[nH]1)NC(=O)[C@H](CC(C)C)NC(=O)[C@@H](NC(=O)[C@@H](NC(=O)[C@H](CCCCN)NC(=O)[C@@H](NC(=O)[C@H](C)NC(=O)[C@H](CC(C)C)NC(=O)[C@H](CCCCN)NC(=O)[C@H](Cc1ccccc1)NC(=O)[C@@H](NC(=O)[C@H](CCCCN)NC(=O)[C@H](CC(C)C)NC(=O)[C@H](Cc1ccccc1)NC(=O)[C@H](CO)NC(=O)[C@H](CCCCN)NC(=O)[C@H](Cc1c[nH]c2ccccc12)NC(=O)[C@H](CCCCN)NC(C)=O)[C@@H](C)O)C(C)C)[C@@H](C)O)C(C)C)[C@@H](C)O)C(=O)N[C@@H](CO)C(=O)N[C@@H](CO)C(N)=O [KWKSFLKTFKLAVKTVLHTALKAISS]

- MIC [13]: 6 µM (≈ 14.5 µg/mL)
- MIC [14]: 0.8 µM (≈ 1.93 µg/mL)
- MIC [15]: 6 µM (≈ 14.5 µg/mL)
- MIC [16]: 6.6 µM (≈ 15.9 µg/mL)
- MIC [17]: 6 µM (≈ 14.5 µg/mL)
- MIC [18]: 26.5 µM (≈ 63.9 µg/mL)
- MIC [19]: 6.6 µM (≈ 15.9 µg/mL)
- MIC [20]: 0.4 µM (≈ 0.964 µg/mL)
- MIC [21]: 6 µM (≈ 14.5 µg/mL)
- MIC [22]: 0.8 µM (≈ 1.93 µg/mL)
SMILES: CC[C@H](C)[C@H](NC(=O)[C@H](C)NC(=O)[C@H](C)NC(=O)[C@H](CCC(=O)O)NC(=O)[C@H](CCCCN)NC(=O)CNC(=O)[C@@H](NC(=O)[C@H](CC(N)=O)NC(=O)[C@H](CCCCN)NC(=O)[C@@H](NC(=O)[C@@H](NC(=O)[C@H](CO)NC(=O)[C@H](Cc1c[nH]c2ccccc12)NC(=O)[C@H](CC(C)C)NC(=O)CN)[C@@H](C)O)[C@@H](C)CC)C(C)C)C(=O)N[C@@H](C)C(=O)N[C@@H](C)C(=O)NCC(=O)N[C@@H](CCCCN)C(=O)N[C@@H](C)C(=O)N[C@@H](C)C(=O)N[C@@H](CC(C)C)C(=O)NCC(=O)N[C@@H](C)C(=O)N[C@@H](CC(C)C)C(N)=O [GLWSTIKNVGKEAAIAAGKAALGAL]

- MIC [1]: 7.35 µM (≈ 16 µg/mL)
- MIC [23]: 2 µM (≈ 4.35 µg/mL)
- MIC [24]: 2 µM and 4 µM
- MIC [25]: 7.35 µM (≈ 16 µg/mL)
- MIC [26]: 1 µM and 2 µM
- MIC [27]: 4 µM and 8 µM
- MIC [28]: 4 µM (≈ 8.7 µg/mL)
- MIC [29]: 4 µM (≈ 8.7 µg/mL)
- MIC [30]: 4 µM and 8 µM
- MIC [31]: 16 µM (≈ 34.8 µg/mL)
- MIC [32]: 14.7 µM (≈ 32 µg/mL)
- MIC [33]: 8 µM (≈ 17.4 µg/mL)
- MIC [2]: 0.919 µM (≈ 2 µg/mL)
- MIC [34]: 3.68 µM (≈ 7.99 µg/mL)
- MIC [16]: 4 µM (≈ 8.7 µg/mL)
- MIC [35]: 0.459 µM (≈ 0.999 µg/mL)
- MIC [36]: 2 µM (≈ 4.35 µg/mL)
- MIC [37]: 4 µM (≈ 8.7 µg/mL)
- MIC [38]: 0.459 µM (≈ 0.999 µg/mL)
- MIC [6]: 0.23 µM (≈ 0.5 µg/mL)
- MIC [39]: 0.459 µM (≈ 0.999 µg/mL)
- MIC [40]: 0.23 µM (≈ 0.5 µg/mL)
- MIC [41]: 4 µM (≈ 8.7 µg/mL)
- MIC [42]: 8 µM (≈ 17.4 µg/mL)
- MIC [43]: 8 µM (≈ 17.4 µg/mL)
- MIC [44]: 2.83 µM (≈ 6.15 µg/mL)
- MIC [45]: 4 µM (≈ 8.7 µg/mL)
- MIC [46]: 1.84 µM (≈ 4 µg/mL)
- MIC [47]: 0.919 µM (≈ 2 µg/mL)
- MIC [48]: 8 µM and 16 µM
- MIC [49]: 4 µM and 8 µM
SMILES: CC[C@H](C)[C@H](NC(=O)[C@H](C)NC(=O)[C@H](C)NC(=O)[C@H](CCC(N)=O)NC(=O)CNC(=O)[C@H](CC(C)C)NC(=O)[C@H](Cc1cnc[nH]1)NC(=O)[C@H](CCCCN)NC(=O)[C@H](C)NC(=O)CNC(=O)[C@H](CCCCN)NC(=O)[C@H](CCCNC(=N)N)NC(=O)[C@H](CC(C)C)NC(=O)[C@H](Cc1c[nH]c2ccccc12)NC(=O)[C@H](CCCCN)NC(=O)[C@H](CCCCN)NC(=O)[C@H](Cc1c[nH]c2ccccc12)NC(=O)CN)C(=O)N[C@@H](CCCCN)C(C)=O [GWKKWLRKGAKHLGQAAIK]

- MIC [50]: 9.82 µM (≈ 30 µg/mL)
- MIC [51]: ≥ 39.3 µM
- MIC [19]: 19.6 µM (≈ 60 µg/mL)
- MIC [52]: ≥ 39.3 µM
- MIC [53]: 4.91 µM (≈ 15 µg/mL)
- MIC [54]: 9.82 µM (≈ 30 µg/mL)
SMILES: CC[C@H](C)[C@H](NC(=O)[C@H](CCC(N)=O)NC(=O)[C@H](CCCCN)NC(=O)[C@H](Cc1c[nH]c2ccccc12)NC(=O)[C@H](CC(C)C)NC(=O)[C@H](CCC(N)=O)NC(=O)[C@@H]1CCCN1C(=O)[C@H](CC(C)C)NC(=O)[C@H](CCCCN)NC(=O)[C@H](C)NC(=O)[C@H](CCC(=O)O)NC(=O)[C@H](CCCCN)NC(=O)[C@@H](NC(=O)[C@H](CCSC)NC(=O)[C@@H](NC(=O)[C@@H](NC(=O)[C@@H](NC(=O)[C@@H](N)CO)[C@@H](C)CC)[C@@H](C)CC)[C@@H](C)O)[C@@H](C)O)C(=O)N[C@@H](C)C(=O)N[C@H]1CSSC[C@@H](C(=O)O)NC(=O)[C@H]([C@@H](C)O)NC(=O)[C@H](CC(N)=O)NC(=O)[C@H](Cc2ccc(O)cc2)NC(=O)[C@H](CC(C)C)NC(=O)[C@H](CCCN=C(N)N)NC1=O [SIITMTKEAKLPQLWKQIACRLYNTC]
